Experimental data reported in BigSolDB 2.1.

Oc1cc(Cl)ccc1Oc1ccc(Cl)cc1Cl
solubility (mole fraction)
Conditions	in chloroform	in ethanol	in isopropyl myristate	in n-heptane	in n-octanol
293.15 K	0.33	0.332	0.0422	0.0156	0.0089
298.15 K	0.412	0.449	0.0475	0.0286	0.025
303.15 K	0.501	0.57	0.0527	0.0421	0.0785
308.15 K	0.561	0.654	0.0563	0.0605	0.157
313.15 K	0.633	0.751	0.0594	0.0806	0.285
